For 20 molecules, inhibition of growth and pest or weed control results are on record in patent US11180462B2, “Microbiocidal oxadiazole derivatives” (SYNGENTA PARTICIPATIONS AG, priority 2015, dated 2021).

The subject of assay [1] is Glomerella lagenarium (Colletotrichum lagenarium). Description: Fungicidal activity against Glomerella lagenarium (Colletotrichum lagenarium) liquid culture / cucumber / preventative (anthracnose). The format is cell-based. Conditions: Colletotrichum orbiculare; 20 ppm in the applied formulation; liquid culture (PDB), growth inhibition measured photometrically after 3 to 4 days; compared to untreated control; read-out: disease control. In outline:
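Percent activity against the untreated check was derived from photometric growth measurements made 2 to 7 days after conidia in potato dextrose broth were combined with compound at 20 ppm. Cultures were kept dark at 24 °C and 96% humidity.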

For assay [2], the system named is Puccinia recondita f. Sp. Tritici. In words: Fungicidal activity against Puccinia recondita f. sp. tritici / wheat / leaf disc preventative (brown rust). The format is in vivo. Conditions: foliar, 200 ppm in the applied formulation, wheat leaf segments, preventative, compared to untreated control leaf disks, read-out: disease control. The method, then:
Leaf disks or leaf segments of various plant species are cut from plants grown in a greenhouse. The cut leaf disks or segments are placed in multiwell plates (24-well format) onto water agar. The leaf disks are sprayed with a test solution before (preventative) or after (curative) inoculation. Compounds to be tested are prepared as DMSO solutions (max. 10 mg/ml) which are diluted to the appropriate concentration with 0.025% Tween20 just before spraying. The inoculated leaf disks or segments are incubated under defined conditions (temperature, relative humidity, light, etc.) according to the respective test system. A single evaluation of disease level is carried out 3 to 14 days after inoculation, depending on the pathosystem. Percent disease control relative to the untreated check leaf disks or segments is then calculated.
Fungicidal Activity Against Puccinia recondita f. Sp. Tritici/Wheat/Leaf Disc Preventative (Brown Rust)
Wheat leaf segments cv. Kanzler were placed on agar in multiwell plates (24-well format) and sprayed with the formulated test compound diluted in water. The leaf disks were inoculated with a spore suspension of the fungus 1 day after application. The inoculated leaf segments were incubated at 19° C. and 75% relative humidity (rh) under a light regime of 12 hours light/12 hours darkness in a climate cabinet and the activity of a compound was assessed as percent disease control compared to untreated when an appropriate level of disease damage appears in untreated check leaf segments (7 to 9 days after application).
The following compounds at 200 ppm in the applied formulation give at least 80% disease control in this test when compared to untreated control leaf disks under the same conditions, which show extensive disease development.

Structures are written as SMILES.

`CCC(C)C(=O)N(Cc1ccc(-c2noc(C(F)(F)F)n2)cc1)CC1CCCO1` (stereo not shown) [Compound 1.437, 2-methyl-N-(tetrahydrofuran-2-ylmethyl)-N-[[4-[5-(trifluoromethyl)-1,2,4-oxadiazol-3-yl]phenyl]methyl]-butanamide]: the inhibition of growth at 20 ppm in assay [1] is at least 80%. Further, the pest or weed control at 200 ppm in assay [2] was at least 80%.

For the molecule `CCCON(Cc1ccc(-c2noc(C(F)(F)F)n2)cc1)C(C)=O` [Compound 1.320, N-propoxy-N-[[4-[5-(trifluoromethyl)-1,2,4-oxadiazol-3-yl]phenyl]methyl]-acetamide], the inhibition of growth at 20 ppm in assay [1] is at least 80%. In addition, the pest or weed control at 200 ppm in assay [2] is at least 80%.

Take `CCCCON(Cc1ccc(-c2noc(C(F)(F)F)n2)cc1)C(=O)COC` [Compound 1.602, N-butoxy-2-methoxy-N-[[4-[5-(trifluoromethyl)-1,2,4-oxadiazol-3-yl]phenyl]methyl]-acetamide]: the inhibition of growth at 20 ppm in assay [1] is at least 80%. The pest or weed control at 200 ppm in assay [2] is at least 80%.

In the case of `O=C(c1cc2c(cc1Br)OCO2)N(Cc1ccc(-c2noc(C(F)(F)F)n2)cc1)C1CC1` [Compound 1.133, 6-bromo-N-cyclopropyl-N-[[4-[5-(trifluoromethyl)-1,2,4-oxadiazol-3-yl]phenyl]methyl]-1,3-benzodioxole-5-carboxamide], in assay [1], the inhibition of growth at 20 ppm is at least 80%. In assay [2], the pest or weed control at 200 ppm is at least 80%.

As for `C#CC(=O)N(Cc1ccc(-c2noc(C(F)(F)F)n2)cc1)OCCC` [Compound 1.305, N-propoxy-N-[[4-[5-(trifiuoromethyl)-1,2,4-oxadiazol-3-yl]phenyl]methyl]-prop-2-ynamide], the inhibition of growth at 20 ppm in assay [1] was at least 80%. Also, the pest or weed control at 200 ppm in assay [2] is at least 80%.

Consider `C#CCOC(C(=O)N(Cc1ccc(-c2noc(C(F)(F)F)n2)cc1)OC)c1ccc(Cl)cc1` (stereo not shown) [Compound 1.69, 2-(4-chlorophenyl)-N-methoxy-2-prop-2-ynoxy-N-[[4-[5-(trifluoromethyl)-1,2,4-oxadiazol-3-yl]phenyl]methyl]-acetamide], for which the inhibition of growth at 20 ppm in assay [1] was at least 80%. In assay [2], the pest or weed control at 200 ppm is at least 80%.

Turning to `COCCN(Cc1ccc(-c2noc(C(F)(F)F)n2)cc1)C(=O)C=CC(F)(F)F` [Compound 1.338, 4,4,4-trifluoro-N-(2-methoxyethyl)-N-[[4-[5-(trifluoromethyl)-1,2,4-oxadiazol-3-yl]phenyl]methyl]but-2-enamide], in assay [1], the inhibition of growth at 20 ppm is at least 80%. Moreover, the pest or weed control at 200 ppm in assay [2] is at least 80%.

As for `CC#CC(=O)N(Cc1ccc(-c2noc(C(F)(F)F)n2)cc1)CC1CCCO1` (stereo not shown) [Compound 1.410, N-(tetrahydrofuran-2-ylmethyl)-N-[[4-[5-(trifluoromethyl)-1,2,4-oxadiazol-3-yl]phenyl]methyl]-2-ynamide], the inhibition of growth at 20 ppm in assay [1] was at least 80%. In addition, the pest or weed control at 200 ppm in assay [2] was at least 80%.

With `CC(=O)NCC(=O)N(Cc1ccc(-c2noc(C(F)(F)F)n2)cc1)Cc1ccco1` [Compound 1.461, 2-acetamido-N-(2-furylmethyl)-N-[[4-[5-(trifluoromethyl)-1,2,4-oxadiazol-3-yl]phenyl]methyl]-acetamide], in assay [1], the inhibition of growth at 20 ppm was at least 80%. Moreover, the pest or weed control at 200 ppm in assay [2] is at least 80%.

As for `C=CCN(Cc1ccc(-c2noc(C(F)(F)F)n2)cc1)C(=O)CCl` [Compound 1.482, N-allyl-2-chloro-N-[[4-[5-(trifluoromethyl)-1,2,4-oxadiazol-3-yl]phenyl]methyl]-acetamide], in assay [1], the inhibition of growth at 20 ppm is at least 80%. Besides, in assay [2], the pest or weed control at 200 ppm was at least 80%.

Regarding `O=C(C1CCC1)N(Cc1ccc(-c2noc(C(F)(F)F)n2)cc1)CC1CCCO1` (stereo not shown) [Compound 1.424, N-(tetrahydrofuran-2-ylmethyl)-N-[[4-[5-(trifluoromethyl)-1,2,4-oxadiazol-3-yl]phenyl]methyl]-cyclobutane-carboxamide], the inhibition of growth at 20 ppm in assay [1] is at least 80%. In assay [2], the pest or weed control at 200 ppm is at least 80%.

Regarding `O=C(c1ccc(Cl)cc1)N(Cc1ccc(-c2noc(C(F)(F)F)n2)cc1)C1CC1` [Compound 1.142, 4-chloro-N-cyclopropyl-N-[[4-[5-(trifluoromethyl)-1,2,4-oxadiazol-3-yl]phenyl]methyl]-benzamide], the inhibition of growth at 20 ppm in assay [1] was at least 80%. Moreover, the pest or weed control at 200 ppm in assay [2] is at least 80%.

Turning to `CCCON(Cc1ccc(-c2noc(C(F)(F)F)n2)cc1)C(=O)COCCOC` [Compound 1.298, 2-(2-methoxyethoxy)-N-propoxy-N-[[4-[5-(trifluoromethyl)-1,2,4-oxadiazol-3-yl]phenyl]methyl]-acetamide], the inhibition of growth at 20 ppm in assay [1] is at least 80%. The pest or weed control at 200 ppm in assay [2] was at least 80%.

On to `CC#CC(=O)N(Cc1ccc(-c2noc(C(F)(F)F)n2)cc1)C(C)CC` (stereo not shown) [Compound 1.367, N-sec-butyl-N-[[4-[5-(trifluoromethyl)-1,2,4-oxadiazol-3-yl]phenyl]methyl]-but-2-ynamide], for which the inhibition of growth at 20 ppm in assay [1] was at least 80%. Further, the pest or weed control at 200 ppm in assay [2] is at least 80%.

On to `CC=CC(=O)N(Cc1ccc(-c2noc(C(F)(F)F)n2)cc1)CC1CCCO1` (stereo not shown) [Compound 1.413, N-(tetrahydrofuran-2-ylmethyl)-N-[[4-[5-(trifluoromethyl)-1,2,4-oxadiazol-3-yl]phenyl]methyl]but-2-enamide], for which the inhibition of growth at 20 ppm in assay [1] was at least 80%. Further, in assay [2], the pest or weed control at 200 ppm is at least 80%.

Consider `O=C(C1CC1(F)F)N(Cc1ccc(-c2noc(C(F)(F)F)n2)cc1)Cc1ccco1` (stereo not shown) [Compound 1.464, 2,2-difluoro-N-(2-furylmethyl)-N-[[4-[5-(trifluoromethyl)-1,2,4-oxadiazol-3-yl]phenyl]methyl]-cyclopropane-carboxamide], for which, in assay [1], the inhibition of growth at 20 ppm is at least 80%. Also, the pest or weed control at 200 ppm in assay [2] was at least 80%.

Turning to `CCC(=O)N(Cc1ccc(-c2noc(C(F)(F)F)n2)cc1)OCc1ccc(Cl)cc1` [Compound 1.550, N-[(4-chlorophenyl)-methoxy]-N-[[4-[5-(trifluoromethyl)-1,2,4-oxadiazol-3-yl]phenyl]methyl]-propanamide], the inhibition of growth at 20 ppm in assay [1] is at least 80%. Moreover, in assay [2], the pest or weed control at 200 ppm is at least 80%.

As for `CON(Cc1ccc(-c2noc(C(F)(F)F)n2)cc1F)C(=O)c1ccccc1Cl` [Compound 1.565, 2-chloro-N-[[2-fluoro-4-[5-(trifluoromethyl)-1,2,4-oxadiazol-3-yl]phenyl]methyl]-N-methoxy-benzamide], the inhibition of growth at 20 ppm in assay [1] was at least 80%. Moreover, the pest or weed control at 200 ppm in assay [2] is at least 80%.

Turning to `CON(Cc1ccc(-c2noc(C(F)(F)F)n2)cc1)C(=O)N1CCCO1` [Compound 3.66, N-methoxy-N-[[4-[5-(trifluoromethyl)-1,2,4-oxadiazol-3-yl]phenyl]methyl]-isoxazolidine-2-carboxamide], the inhibition of growth at 20 ppm in assay [1] is at least 80%. In addition, in assay [2], the pest or weed control at 200 ppm was at least 80%.

As to `CON(Cc1ccc(-c2noc(C(F)(F)F)n2)cc1)C(=O)c1cccc2nnsc12` [Compound 1.67, N-methoxy-N-[[4-[5-(trifluoromethyl)-1,2,4-oxadiazol-3-yl]phenyl]methyl]-1,2,3-benzothiadiazole-7-carboxamide], the inhibition of growth at 20 ppm in assay [1] is at least 80%. The pest or weed control at 200 ppm in assay [2] was at least 80%.
